# From US6011019A, “Vasoactive effects and free radical generation by β-amyloid peptides” (University of South Florida, priority 1996, dated 2000)
# Columns and labels:
# [1] = system: human neuroblastoma cell line (BE(2)-M17); test: Aβ toxicity on BE(2)-M17 (trypan blue exclusion); assay type: cell-based; conditions: same concentrations as HAEC cultures, up to day eight; data not shown
# From the text: Trypan blue exclusion was used for the cell viability assay.
# rat coronary arteries = test: Rat coronary artery constriction and relaxation (U46619, acetylcholine); conditions: for constriction of rat coronary artery by the peptide: 10^-6 M peptide
# Procedure: The effects of β-amyloid peptide were examined on samples of rat coronary arteries prepared as described above. Referring specifically to FIG. 1, rat coronary arteries were treated with β-amyloid peptide (Aβ40) causing constriction of the coronary arteries.
# FIG. 3 illustrates the effect of various amyloid fragments on the constriction of rat coronary arteries. Following control constriction with 10^-7 M U46619, the tissue samples were rinsed, equilibrated with buffer, and treated with 10^-6 M Aβ peptides for fifteen minutes. Following treatment with the Aβ peptides, the blood vessels were rinsed and again exposed to U46619. The values are expressed as percent of control constriction produced by U46619 alone.
# The effect of pretreatment of coronary arteries with a single dose (10^-6 M) of A40 on acetylcholine induced relaxation is shown in FIG. 20. The blood vessel was preconstricted with 10^-7 M U46619 and relaxed with increasing doses of acetylcholine (10^-9 M to 10^-5 M).
# rat aorta = test: Enhancement of endothelin-1 (ET-1) induced vasoconstriction of rat aorta
# Procedure: Normal Sprague-Dawley rats were sacrificed by decapitation, and freshly dissected rat aorta was segmented into rings and suspended in Ringers buffer using a tensiometer linked to the MacLab system. Following a two hour equilibration period, the "pretreatment" contraction was carried out. The aortic rings were contracted using a range of doses of endothelin-1 and relaxed using a single odes of acetylcholing (Ach(10^-7 M)). […] The dose of each Aβ peptide was 1 μM, with the exception of Aβ25-35 (1 μM and 5 μM), and was added ten minutes prior to the first ET-1 dose. For SOD treatment we added 150 U/ml 30 seconds before the addition of Aβ.
# Endothelium was removed by gently passing a glass pipette, dipped in saline solution, through the lumen of the aortae several time, allowing the pipette to gently brush the endothelial surface. Endothelium was removed from the aortae prior to hanging in the tissue bath system. Both pre-and post treatment contractions involved a single does of ET-1 (5×10^-9 M).
# (§1) In all cases the mean difference in percentage contraction in the pre- and post-contractions (before and after addition of test compound respectively) was measured, and compared between the two. Endogenous production of ET-1 was measured using an ET-1 RIA kit (Peninsula Laboratories).
# ET-1 = test: Endogenous ET-1 release, radioimmunoassay; design: species or system rat; conditions: competition with 125I-labeled ET-1
# Procedure: as §1
# To investigate the possibility that Aβ releases endogenous stores of ET-1 a radioimmunoassay in which endogenous ET-1 released into the vessel buffer, would compete with ^125 I-labeled ET-1 for binding to a specific antibody was performed. […] In addition, to examine the role played by lipid peroxidation is in the vasoconstrictive mechanism, vessels were contracted in the presence of allopurinol, which inhibits the conversion of xanthine dehydrogenase to xanthine oxidase, preventing lipid peroxidation.
# [2] = system: human aortic endothelial cel line (HAEC)
# Procedure: All these cells were maintained at 37° C., under an atmosphere containing 5% CO2. For the present experiments, HAEC and BE(2)-M17 were seeded at densities of 2×10^4 cells per well in 24-23ll clusters.
# The experiments were terminated one half, one, two and three hours post treatment by detachment with Trypsin/EDTA solution and followed by a toxicity assay with trypan blue exclusion. In parallel experiments, cells were attached to a round Thermanox (Nunc) at the bottom of the well, and were stopped three to 24 hours post treatment by fixation with 4% neutral formalin solution which was followed by Hematoxylin-Eosin stain to show morphology.
# Morphological changes in cells were monitored throughout the course of the experiment with an inverse phase-contrast microscope. After termination of the experiments, the cells fixed on the Thermanox were subjected to routine Hematoxylin-Eosin (HE) stain. The morphological characteristics of toxic cells were observed under light microscope and typical results were recorded by photographs.
# For approximate quantification of Aβ toxicity of HAEC, modified procedure for trypan blue exclusion was employed. In brief, the detached cells were resuspended with an appropriate volume of culture media, 20 μl of this cell suspension was mixed with an equivalent volume of 4% Trypan-blue solution thoroughly, and allowed to sit for two minutes after mixing. Approximately 9 μl of the mixture was transferred to a hemocytometer for cell counting. The cell viability was determined by the equation: [formula] In the case of severe toxicity, where some of the cells were lysed, the total cell numbers were adjusted by that of controls. In this experiment, counts for each sample were triplicated.
# basilar artery = test: Diameter of the basilar artery in living animals after Aβ infusion; assay type: in vivo, rat
# Procedure: In the experiments, the animals were infused twice daily for two weeks for an estimated final molarity of 0.5 μM. In the experiments, Aβ1-40 was used. The Aβ infused animals developed gross lung pathology. The lung capillary beds were the first to be reached by the venously infused Aβ. […] This is consistent with the conclusion that in Alzheimer's Disease, the cerebral vasculature could potentially be damaged and destroyed by circulating or locally produced Aβ.
# Sprague-Dawley rats [3] = conditions: rat, in vivo
# Procedure: (§2) Eleven three month old male Sprague-Dawley rats (300-350 g) were anesthetized with sodium pentobarbital (50 mg/kg, ip.) and a polyethylene cannula was inserted into the right external jugular vein to approach or enter the right atrium. […] The remaining six animals served as controls by receiving twice daily intravenous infusions of vehicle solution. Treatments were continued for 14 days, with Morris water maze "acquisition" (learning) tested during days 7-13 and water maze memory retention evaluated on day 14. Daily acquisition testing consisted of four consecutive daily trials, wherein latency to reach the submerged platform in Quadrant 2(Q2) was determined and a daily average calculated. For the memory retention trial, the submerged platform was removed and animals were placed in the quadrant opposite Q2. The percentage of time spent in the quadrant formerly containing the platform (Q2) was used as a measure of memory retention. Acquisition data was analyzed using two-way ANOVA for repeated measures and retention data was analyzed with one-way ANOVA and Student's t-test.
# On day 15, animals were anesthetized with sodium pentobarbital and transcardially perfused with 4% paraformaldehyde in 0.1M PBS (pH 7.4). Tissue samples from the lung, heart, kidney, liver and pancreas were collected and post-fixed in perfusate solution until histologic processing. Brains were removed and placed in perfusate for 24 hours, followed by cytoprotective storage in 30% sucrose until histologic processing. For all tissues 20 and 40 μm frozen sections were collected and stained with Mayer's Acid Hemalin followed by alkaline Congo red. Selected 20 μm brain sections were stained for glial fibrillary acidic protein (GFAP).
# Sprague-Dawley rats [4] = test: Morris water maze acquisition and memory retention during intravenous Aβ infusion; assay type: in vivo, rat; conditions: days 7-14
# Procedure: as §2
substance,measurement,setting,value
Aβ1-40: Soluble Aβ containing forty amino acids; supplied by RBI and/or MD Enterprise,toxic effect on differentiated BE(2)-M17 cells,[1],not toxic effect was noticed
same,constriction of rat coronary artery by the peptide,rat coronary arteries,induce constriction of the coronary artery
same,constriction of rat coronary artery by the peptide,rat coronary arteries; listed as Aβ,small but detectable contraction
same,duration of constriction compared among fragments,"rat coronary arteries; 10^-6 M peptides, real time recording",longest sustained constriction
same,U46619 induced vasoconstriction following Aβ treatment,rat coronary arteries; 10^-7 M U46619 after 10^-6 M Aβ for fifteen minutes,significantly potentiated
same,effect of Aβ on the ET-A antagonist induced decrease of ET-1 contraction,rat aorta,in part countered
same,enhancement in aortae from older versus younger rats,rat aorta,trend towards greater enhancement in older rats
same,enhancement of ET-1 contraction,rat aorta; peptide 1 μM (Aβ25-35 1 μM and 5 μM) ten minutes prior to first ET-1 dose,dramatically enhanced the contraction of rat aorta by ET-1
same,enhancement of ET-1 contraction in the absence of endothelium,rat aorta; single dose ET-1 5×10^-9 M,enhance contraction of rat aortae to an extent not significantly different from the enhancement observed in the presence of endothelium
same,release of endogenous ET-1 into the vessel buffer,ET-1,did not indicate that any unlabelled ET-1 was present
same,cell viability at 32 μM,[2],significantly less cell viability compared to control
same,cell viability at low concentrations,[2],not found to induce significant change of cell viability
same,"toxicity of several batches (RBI, MD, Sigma)",[2],almost non-toxic to HAEC
same,basilar artery diameter,basilar artery,results in constriction of this artery
same,Congo red birefringence in the brains,Sprague-Dawley rats [3],no Congo red birefringence was observed
same,perivascular gliosis in GFAP stained brain sections,Sprague-Dawley rats [3],increased perivascular gliosis was evident
same,"severe vascular accidents in other peripheral tissues (kidney, pancreas, heart)",Sprague-Dawley rats [3],"not, however, typically seen"
same,water maze acquisition and memory retention,Sprague-Dawley rats [4],no different from that of vehicle-infused controls
